Source: patent EP3683219A1, “COMPOUND INHIBITING BUTYRYLCHOLINESTERASE” (Julius-Maximilians-Universität Würzburg, priority 2019, dated 2020)
Where two headings read alike, the source gives them in different places.

Assays:
Assay type in all cases: biochemical
hBChE [1] = target: T1, hBChE (Homo sapiens, UniProt P06276); assay: Carbamoylation kinetics on hBChE (time-dependent inhibition, Kc and k3); conditions: for k3 [min^-1] hBChE: carbamoylation rate constant; for Kd: carbamoylation, pre-equilibrium constant
From the text: As carbamate based inhibitors (C-X) show a pseudo irreversible manner of binding, the IC50 values must be seen critically because two chemical reactions determine them: Carbamate (C) transfer onto the enzyme (E) and carbamate hydrolysis. So, the Kc values, k3 and k4 rate constants according to below formula were investigated for some representative compounds (c.f. Fig. 3 and Fig. 4). [formula]
The mechanism of enzyme inhibition can be divided into three steps: In a pre-equilibrium, the carbamate based inhibitor C-X is bound to the enzyme E and a complex (EC-X) is formed reversible and can be characterized with Kc. Then the carbamate C is transferred onto the enzyme E and binds covalently to form E-C with the rate constant k3 while carrier scaffold X is released. Then E-C is hydrolyzed and enzyme activity is recovered and the amine C' is released with the rate constant k4, also called decarbamoylation rate.
For the determination of Kc and k3 a similar experimental setup was used compared to the evaluation of IC50 values, whereas enzyme activity was measured at various time points after addition of inhibitor.
A = A0 ⋅e^(−kobs ⋅t) + A∞ [formula]
Plotting the enzyme activity (in %) against the incubation times, lead to nonlinear time-dependent inhibition curves for the respective inhibitor concentrations whereby kobs can be determined with an exponential fit correspondent to equation (I).
Furthermore, a hyperbolic curve is obtained, plotting the rate constant kobs against the inhibitor concentration [I], which is described by equation (II), with the substrate concentration [S] and the Michaelis-Menten constant KM. kobs = (k3 ⋅[I])/(KC ⋅(1+([S])/(KM)) + [I]) [formula]
This equation (II) can be rearranged to the reciprocal of kobs, to get a linear plot: (1)/(kobs) = (KC ⋅(1+([S])/(KM)))/(k3)⋅(1)/([I]) + (1)/(k3) [formula]
Since the substrate butyrylthiocholine iodide is not added directly to the enzyme and the inhibitor, but after the incubation of enzyme with inhibitor, [S] can be set to zero, leading to Michaelis-Menten like equation IV. (1)/(kobs) = (KC)/(k3)⋅(1)/([I]) + (1)/(k3) [formula]
Relating to the linear equation (IV), KC can be established from the slope and carbamoylation rate constant k3 from the y-intercept.
As a chemical reaction is taking place, Kc must be seen as a 'real' measure for quantification of enzyme inhibitor interactions. Due to the high costs in measurements on hBChE only some representative compounds were chosen to evaluate also in kinetic studies based on the results from IC50 measurements (table 3). Table 3. Kinetic values for carbamoylation on hBChE for selected representative compounds

hBChE [2] = target: T1, hBChE; assay: biochemical; conditions: for Selectivity index (IC50 hAChE/IC50 hBChE): hAChE over hBChE; for fold lower activity than heptyl carbamate 7 (IC50 hBChE): compared with compound 7; for IC50 values (hBChE), in words: linker of 4 methylene groups
Method: (§1) For evaluation of enzyme inhibition, Ellman's colorimetric assay was conducted as described in Ellman, G. L., Arch. Biochem. Biophys 1958, 74, 443-450 and Ellman, G. L. et al., Biochem. Pharmacol. 1961, 7, 88-95. Therefor, 5,5'-dithiobis-(2-nitrobenzoic acid) (DTNB) solution, respective Cholinesterase (ChE) and inhibitor were incubated together and enzyme activity was measured after 20 min. The long incubation time was needed to allow the carbamate transfer between ChE and inhibitor.
(§2) The carbamate residue was altered systematically by changing residues in the terminal position of carbamate moiety and different flexible alkylene linkers were introduced. […] Nevertheless, it must be noted that IC50 values only serve as a first indicator of inhibitor affinity and selectivity. Due to the chemical reaction of carbamate transfer the enzyme inhibition is strongly time dependent. […]

hAChE = hAChE (Homo sapiens, UniProt P22303); assay: Ellman's colorimetric assay, inhibition of hAChE; conditions: for inhibition at 25 µM / inhibition at 100 µM: read-out: inhibition of hAChE; for IC50 / plC50 ± SEM (hAChE): enzyme activity measured after 20 min incubation
Method: as §1, §2

hBChE [3] = target: T1, hBChE; assay: Decarbamoylation from hBChE, dilution experiments (recovery of enzyme activity, k4); conditions: decarbamoylation rate, after 1 h incubation and 1:1000 dilution
Method: To further investigate the presence and nature of a peripheral binding site, also the hydrolysis of carbamate and the resulting release of the inhibitor from the enzyme was investigated by measuring the time dependent recovery of enzyme activity. To measure the decarbamoylation rate k4, dilution experiments were performed with hBChE following the procedure described in Sawatzky, E. et al., ChemMedChem 2016, 11, 1540-1550 and in Bartolucci, C. et al., Biochem. J. 2012, 444, 269-277. A high concentration of enzyme and inhibitor where incubated for 1 h. The concentration of inhibitor was chosen, such that > 85% of hBChE was inhibited through carbamate transfer. Then the mixture was diluted with buffer 1:1000 to a concentration at which the enzyme is not further carbamoylated. Due to the hydrolysis and release of the carbamate from the catalytic active serine enzyme activity was recovered slowly. This regeneration of the enzyme was monitored at different time points after the dilution. […] A = (1−e^(k4 ⋅t))⋅(1−A0) + A0 [formula] Table 4. Kinetic values for decarbamoylation from hBChE of selected compounds

[4] = enzyme activity measured after 20 min incubation
[5] = enzyme activity measured after 20 min incubation, read-out: IC50 hBChE

T1 sequence (P06276 29-602): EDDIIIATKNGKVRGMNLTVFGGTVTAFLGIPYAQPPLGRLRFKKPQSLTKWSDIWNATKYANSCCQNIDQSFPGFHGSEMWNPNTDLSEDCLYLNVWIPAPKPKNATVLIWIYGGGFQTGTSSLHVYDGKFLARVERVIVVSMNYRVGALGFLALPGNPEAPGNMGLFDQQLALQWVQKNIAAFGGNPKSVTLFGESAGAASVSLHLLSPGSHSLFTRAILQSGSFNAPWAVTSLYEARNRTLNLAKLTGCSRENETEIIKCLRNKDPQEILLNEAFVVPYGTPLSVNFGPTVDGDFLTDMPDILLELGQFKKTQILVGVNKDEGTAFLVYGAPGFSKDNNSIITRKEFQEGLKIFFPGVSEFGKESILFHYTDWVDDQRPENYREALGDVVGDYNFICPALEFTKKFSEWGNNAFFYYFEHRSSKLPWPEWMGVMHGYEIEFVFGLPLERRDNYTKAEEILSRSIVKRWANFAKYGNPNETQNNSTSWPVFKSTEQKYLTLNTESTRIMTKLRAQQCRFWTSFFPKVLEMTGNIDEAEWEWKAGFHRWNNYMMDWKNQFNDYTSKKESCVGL
hAChE, sequence (P22303 32-614): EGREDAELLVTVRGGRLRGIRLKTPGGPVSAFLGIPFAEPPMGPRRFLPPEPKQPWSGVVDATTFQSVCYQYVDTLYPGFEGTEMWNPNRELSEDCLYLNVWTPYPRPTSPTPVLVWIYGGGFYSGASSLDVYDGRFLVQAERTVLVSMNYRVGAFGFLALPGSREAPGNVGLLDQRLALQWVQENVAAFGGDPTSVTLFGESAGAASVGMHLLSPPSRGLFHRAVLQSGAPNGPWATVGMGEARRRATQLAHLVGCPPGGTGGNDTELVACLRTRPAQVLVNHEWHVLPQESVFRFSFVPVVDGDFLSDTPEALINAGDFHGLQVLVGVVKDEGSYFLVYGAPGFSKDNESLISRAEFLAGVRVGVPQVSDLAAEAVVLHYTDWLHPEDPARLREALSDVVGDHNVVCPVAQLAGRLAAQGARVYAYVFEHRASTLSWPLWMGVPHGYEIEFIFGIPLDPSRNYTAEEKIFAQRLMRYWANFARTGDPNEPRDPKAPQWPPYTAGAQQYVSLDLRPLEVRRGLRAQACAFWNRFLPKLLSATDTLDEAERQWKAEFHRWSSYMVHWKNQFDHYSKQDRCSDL

Row | SMILES | k3 [min^-1] hBChE (hBChE [1]) [min⁻¹] | Kd (hBChE [1]) [nM] | plC50 ± SEM (hBChE) (hBChE [2]; [4]) | IC50 (hBChE [2]; [5]) [nM] | Selectivity index (IC50 hAChE/IC50 hBChE) (hBChE [2]) | k4 (hBChE [3]) [h⁻¹] | inhibition at 10 µM (hAChE) [%] | also measured
1 | CN1c2ccc(OC(=O)NCCCCCCN3CCNCC3)cc2CN2CCc3ccccc3C21 (stereo not shown) [Compound 19r] | 0.32 ± 0.13 | 121 ± 116 | 7.09 ± 0.03 | 80.6 | >100 | 1.44 ± 0.07 | – | inhibition at 25 µM (hAChE; 25 µM): 16%
2 | CN1c2ccc(OC(=O)NCCCCCCN3CCCCC3)cc2CN2CCc3ccccc3C21 (stereo not shown) [Compound 19p] | – | – | 7.08 ± 0.04 | 83.7 | 14 | 0.129 ± 0.006 | – | fold lower activity than heptyl carbamate 7 (IC50 hBChE) (hBChE [2]): approximately 10 fold; IC50 (hAChE): 1200 nM; plC50 ± SEM (hAChE) (hAChE): 5.91 ± 0.03
3 | CN1c2ccc(OC(=O)NCCCCN3CCOCC3)cc2CN2CCc3ccccc3C21 (stereo not shown) [Compound 19c] | – | – | 7.30 ± 0.02 | 50.6 | >1000 | 0.48 ± 0.06 | – | IC50 values (hBChE), in words (hBChE [2]): two-digit nanomolar; inhibition at 100 µM (hAChE; 100 µM): 13%
4 | CN1c2ccc(OC(=O)NCCCN3CCOCC3)cc2CN2CCc3ccccc3C21 (stereo not shown) [Compound 19b] | – | – | 6.03 ± 0.02 | 938 | >100 | – | – | inhibition at 100 µM (hAChE; 100 µM): 13%
5 | CN1c2ccc(OC(=O)NCCCCCCN3CCN(C(=O)OC(C)(C)C)CC3)cc2CN2CCc3ccccc3C21 (stereo not shown) [Compound 19q] | 0.70 ± 0.31 | 1550 ± 827 | – | 123 | >100 | – | – | IC50 (hBChE [2]): 794 nM; inhibition at 25 µM (hAChE): 15%
6 | CN1c2ccc(OC(=O)NCCCCCCN3CCCC3)cc2CN2CCc3ccccc3C21 (stereo not shown) [Compound 19o] | – | – | – | 34.3 | 26 | 0.98 ± 0.04 | – | IC50 (hBChE [2]): 339 nM; fold lower activity than heptyl carbamate 7 (IC50 hBChE) (hBChE [2]): approximately 10 fold; IC50 (hAChE): 880 nM; plC50 ± SEM (hAChE) (hAChE): 6.06 ± 0.03
7 | CN1c2ccc(OC(=O)NCCCCCCCCCCN3CCOCC3)cc2CN2CCc3ccccc3C21 (stereo not shown) [Compound 19f] | – | – | 7.94 ± 0.07 | 11.5 | >1000 | – | – | inhibition at 100 µM (hAChE; 100 µM): 25%
8 | CN1c2ccc(OC(=O)NCCCCCCn3ccnc3)cc2CN2CCc3ccccc3C21 (stereo not shown) [Compound 19n] | 0.31 ± 0.15 | 13.1 ± 14.4 | 7.88 ± 0.06 | 13.3 | >1000 | 0.82 ± 0.03 | – | Kc values (hBChE), in words (hBChE [1]): one-digit nanomolar range; inhibition at 25 µM (hAChE; 25 µM): 18%
9 | CN1c2ccc(OC(=O)NCCN3CCOCC3)cc2CN2CCc3ccccc3C21 (stereo not shown) [Compound 19a] | – | – | 5.11 ± 0.04 | 7770 | >10 | – | – | inhibition at 100 µM (hAChE; 100 µM): 17%
10 | CN1c2ccc(OC(=O)NCCCCCCCCN3CCOCC3)cc2CN2CCc3ccccc3C21 (stereo not shown) [Compound 19e] | – | – | – | 19.8 | >1000 | 1.58 ± 0.15 | – | IC50 (hBChE [2]): 85.1 nM; inhibition at 100 µM (hAChE): 22%
11 | CN1c2ccc(OC(=O)NCCCCCCCCCCN3CCc4ccccc4C3)cc2CN2CCc3ccccc3C21 (stereo not shown) [Compound 19l] | 0.25 ± 0.04 | 5.68 ± 2.19 | 7.38 ±0.04 | 41.8 | >1000 | – | 15 | Kc values (hBChE), in words (hBChE [1]): one-digit nanomolar range
12 | CN1c2ccc(OC(=O)NCCN3CCc4ccccc4C3)cc2CN2CCc3ccccc3C21 (stereo not shown) [Compound 19g] | >20 | > 200000 | 5.76 ± 0.05 | 1720 | >10 | – | 10 | –
13 | CN1c2ccc(OC(=O)NCCCN3CCc4ccccc4C3)cc2CN2CCc3ccccc3C21 (stereo not shown) [Compound 19h] | – | – | 5.94 ± 0.05 | 1160 | >10 | – | 12 | –
14 | CN1c2ccc(OC(=O)NCCCCCCn3cnc4ccccc43)cc2CN2CCc3ccccc3C21 (stereo not shown) [Compound 19m] | 0.26 ± 0.09 | 7.7 ± 4.6 | 8.13 ± 0.04 | 7.4 | >1000 | 0.45 ± 0.04 | – | Kc values (hBChE), in words (hBChE [1]): one-digit nanomolar range; inhibition at 25 µM (hAChE; 25 µM): 44%
15 | CN1c2ccc(OC(=O)NCCCCN3CCc4ccccc4C3)cc2CN2CCc3ccccc3C21 (stereo not shown) [Compound 19i] | – | – | 6.72 ± 0.06 | 192 | >100 | 0.028 ± 0.001 | 16 | IC50 values (hBChE), in words (hBChE [2]): two-digit nanomolar
16 | CN1c2ccc(OC(=O)NCCCCCCCCN3CCc4ccccc4C3)cc2CN2CCc3ccccc3C21 (stereo not shown) [Compound 19k] | – | – | 7.49 ± 0.03 | 32.6 | >1000 | 0.83 ± 0.06 | 11 | –
